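Five concentrations, 48 hours, 96-well plates. GI50 = concentration required for 50% inhibition of growth.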 Calls of active or inactive are those of the source. No stated cut-off is given here; in the data, active = GI50 up to about 1.1 µM and inactive = higher.
Key:
Assay in all cases: DTP human tumour cell line panel, 48 h
HL-60 = test system: HL-60
A549 = test system: A549
MDA-MB-231 = test system: MDA-MB-231
HCC 2998 = test system: HCC 2998
MOLT-4 = test system: MOLT-4
HCT-116 = test system: HCT-116
IGROV-1 = test system: IGROV-1
T47D = test system: T47D
NCI-H226 = test system: NCI-H226
SN12C = test system: SN12C
SK-MEL-5 = test system: SK-MEL-5
Hs-578T = test system: Hs-578T
HOP-62 = test system: HOP-62
EKVX = test system: EKVX
M14 = test system: M14
PC-3 = test system: PC-3
OVCAR-3 = test system: OVCAR-3
NCI-H522 = test system: NCI-H522
RPMI-8226 = test system: RPMI-8226

Row | SMILES | GI50 (HL-60) | GI50 (A549) | GI50 (MDA-MB-231) | GI50 (HCC 2998) | GI50 (MOLT-4) | GI50 (HCT-116) | GI50 (IGROV-1) | GI50 (T47D) | GI50 (NCI-H226) | GI50 (SN12C) | GI50 (SK-MEL-5) | GI50 (Hs-578T) | GI50 (HOP-62) | GI50 (EKVX) | GI50 (M14) | GI50 (PC-3) | GI50 (OVCAR-3) | GI50 (NCI-H522) | GI50 (RPMI-8226)
1 | O=C(/C=c1\oc(=O)/c(=C/C(=O)c2ccc(Cl)cc2)oc1=O)c1ccc(Cl)cc1 | > 100 µM (inactive) | > 100 µM (inactive) | > 100 µM (inactive) | > 100 µM (inactive) | 23.8 µM (inactive) | > 100 µM (inactive) | 63.4 µM (inactive) | 53.7 µM (inactive) | > 100 µM (inactive) | > 100 µM (inactive) | > 100 µM (inactive) | 34.2 µM (inactive) | > 100 µM (inactive) | > 100 µM (inactive) | > 100 µM (inactive) | > 100 µM (inactive) | 49.9 µM (inactive) | 19.7 µM (inactive) | > 100 µM (inactive)
2 | C=C(C)C(=O)O[C@H]1[C@H]2[C@H](OC(=O)[C@H]2C)[C@H](O)[C@@H](C)[C@@H]2C=CC(=O)[C@]21C | 0.692 µM (active) | 4.16 µM (inactive) | 4.54 µM (inactive) | 2.45 µM (inactive) | 3 µM (inactive) | 2.32 µM (inactive) | 2.37 µM (inactive) | 4.78 µM (inactive) | 8.57 µM (inactive) | 2.08 µM (inactive) | 5.47 µM (inactive) | 4.9 µM (inactive) | 9.06 µM (inactive) | 2.86 µM (inactive) | 5.97 µM (inactive) | 4.51 µM (inactive) | 4.52 µM (inactive) | 1.2 µM (inactive) | 2.85 µM (inactive)
3 | c1ccc(CCN(Cc2nc3ccccc3[nH]2)Cc2nc3ccccc3[nH]2)cc1 | 2.41 µM (inactive) | 17.1 µM (inactive) | 13.2 µM (inactive) | 16.9 µM (inactive) | 6.59 µM (inactive) | 4.67 µM (inactive) | 8.15 µM (inactive) | 1.79 µM (inactive) | 27.6 µM (inactive) | 14.6 µM (inactive) | 3.86 µM (inactive) | 20.2 µM (inactive) | 11.3 µM (inactive) | 39.1 µM (inactive) | 12.9 µM (inactive) | 11.5 µM (inactive) | 20.2 µM (inactive) | 17 µM (inactive) | 3.05 µM (inactive)
4 | C=C1C(C(=O)OC)[C@H]1C(=O)OC (some centres undefined) | > 100 µM (inactive) | > 100 µM (inactive) | > 100 µM (inactive) | > 100 µM (inactive) | > 100 µM (inactive) | > 100 µM (inactive) | > 100 µM (inactive) | > 100 µM (inactive) | > 100 µM (inactive) | > 100 µM (inactive) | > 100 µM (inactive) | > 100 µM (inactive) | > 100 µM (inactive) | > 100 µM (inactive) | > 100 µM (inactive) | > 100 µM (inactive) | > 100 µM (inactive) | > 100 µM (inactive) | > 100 µM (inactive)
5 | C=C(CN(C)C)C1(c2ccccc2)CC2(CCCC2)C(=O)O1 (centres undefined) | 23.7 µM (inactive) | > 100 µM (inactive) | 64.4 µM (inactive) | > 100 µM (inactive) | 24.9 µM (inactive) | 70.3 µM (inactive) | > 100 µM (inactive) | > 100 µM (inactive) | > 100 µM (inactive) | > 100 µM (inactive) | > 100 µM (inactive) | > 100 µM (inactive) | > 100 µM (inactive) | > 100 µM (inactive) | 66.5 µM (inactive) | 79.6 µM (inactive) | 38.7 µM (inactive) | 20.9 µM (inactive) | 88.3 µM (inactive)
6 | O=c1cc(N2CCOCC2)n2c(ccc3ccccc32)n1 | > 100 µM (inactive) | > 100 µM (inactive) | > 100 µM (inactive) | > 100 µM (inactive) | > 100 µM (inactive) | > 100 µM (inactive) | > 100 µM (inactive) | > 100 µM (inactive) | > 100 µM (inactive) | > 100 µM (inactive) | > 100 µM (inactive) | > 100 µM (inactive) | > 100 µM (inactive) | > 100 µM (inactive) | > 100 µM (inactive) | > 100 µM (inactive) | > 100 µM (inactive) | > 100 µM (inactive) | > 100 µM (inactive)
7 | CC(=O)Oc1cccc2c(/C=N/NC(N)=S)ncc(C)c12 | 0.931 µM (active) | 3.81 µM (inactive) | 2.58 µM (inactive) | 0.818 µM (active) | 0.385 µM (active) | 1.96 µM (inactive) | 2.99 µM (inactive) | 1.47 µM (inactive) | 2.96 µM (inactive) | 0.863 µM (active) | 1.38 µM (inactive) | 20.6 µM (inactive) | 1.07 µM (active) | 4.72 µM (inactive) | 0.753 µM (active) | 1.9 µM (inactive) | 0.381 µM (active) | 0.705 µM (active) | 1.56 µM (inactive)
8 | COc1cc2nc(-c3c(F)cccc3F)n(Cc3c(F)cccc3F)c2cc1Cc1c(F)cccc1F | – | > 47.8 µM (inactive) | 27.7 µM (inactive) | 20.6 µM (inactive) | 6.84 µM (inactive) | > 26.7 µM (inactive) | 0.292 µM (active) | 4.05 µM (inactive) | > 28.6 µM (inactive) | > 69.8 µM (inactive) | 6.28 µM (inactive) | > 20.5 µM (inactive) | > 100 µM (inactive) | 16.9 µM (inactive) | > 24.3 µM (inactive) | > 100 µM (inactive) | 4.73 µM (inactive) | 10 µM (inactive) | 7.71 µM (inactive)
9 | CN(C(=O)c1ccccc1)C1CCCC(=O)CC1 (centres undefined) | > 100 µM (inactive) | > 100 µM (inactive) | > 100 µM (inactive) | > 100 µM (inactive) | – | > 100 µM (inactive) | > 100 µM (inactive) | > 100 µM (inactive) | > 100 µM (inactive) | > 100 µM (inactive) | – | > 100 µM (inactive) | > 100 µM (inactive) | > 100 µM (inactive) | > 100 µM (inactive) | > 100 µM (inactive) | > 100 µM (inactive) | > 100 µM (inactive) | > 100 µM (inactive)
10 | CCCCCCC1CC(=O)C1(Cl)Cl (centres undefined) | 2.96 µM (inactive) | > 100 µM (inactive) | 30.7 µM (inactive) | 26.3 µM (inactive) | 13.5 µM (inactive) | 16.7 µM (inactive) | 25.1 µM (inactive) | 27.5 µM (inactive) | 43.9 µM (inactive) | 29.2 µM (inactive) | 17 µM (inactive) | 20 µM (inactive) | 44.7 µM (inactive) | 59.2 µM (inactive) | 26.7 µM (inactive) | 25.1 µM (inactive) | – | 17.3 µM (inactive) | 0.377 µM (active)
11 | O=C1C(=CNc2ccc([N+](=O)[O-])cc2)C(=O)N(c2ccccc2)C(=O)N1c1ccccc1 | – | > 100 µM (inactive) | > 100 µM (inactive) | > 100 µM (inactive) | > 100 µM (inactive) | > 100 µM (inactive) | > 100 µM (inactive) | 70.1 µM (inactive) | > 100 µM (inactive) | > 100 µM (inactive) | > 100 µM (inactive) | > 100 µM (inactive) | > 100 µM (inactive) | > 100 µM (inactive) | 73.1 µM (inactive) | > 100 µM (inactive) | 56.6 µM (inactive) | > 100 µM (inactive) | 71.6 µM (inactive)

Source: ChEMBL document CHEMBL1201862, “PubChem BioAssay data set” (2004)
